Data: US10010534B2, “Intravenous formulation and LC/MS/MS analysis method for GMC1” (THE BOARD OF REGENTS OF THE UNIVERSITY OF TEXAS SYSTEM, priority 2016, dated 2018)
Converted amounts (≈) assume the structure as drawn. Where two headings read alike, the source gives them in different places.

Tests used:
[1] = Freeze-thaw cycle stability of GMC1 plasma and urine samples; format: physicochemical, rat; conditions: read-out: Mean Recovery ± SD, freeze-thaw cycle stability
Description: The freeze-thaw cycle stability of GMC1 plasma and urine samples was evaluated by comparing QC plasma and urine samples exposed to three cycles of freeze (at −80° C.) and thaw (room temperature) to freshly prepared QC samples at the same concentration. Average recoveries from freeze-thawed plasma samples were 106±5.9%, 98.5±3.7% and 94.1±2.9% for GMC1 concentrations of 10, 200 and 400 ng/mL respectively. Average recovery from urine samples were 113±8.9%, 101±3.9%, and 86.6±7.5% for 10, 200 and 400 ng/mL GMC1 concentrations respectively.

[2] = system: glucocorticoid receptor (GR); conditions: variety of cell lines; cited from earlier work
[3] = system: androgen receptor (AR); conditions: variety of cell lines; cited from earlier work
[4] = system: 22Rv1 prostate cancer cell; test: 22Rv1 prostate cancer cell proliferation; format: cell-based
[5] = Water-octanol partition co-efficient (log P), shaker method; format: physicochemical
Description: The water-octanol partition co-efficient (log P) of GMC1, a measure of how hydrophilic (“water-loving”) or hydrophobic (“water-fearing”) GMC1 is, was also evaluated using the shaker method.

[6] = Processed sample (on-instrument or auto-sampler) stability; format: physicochemical; conditions: rat
Description: The stability of processed samples (on-instrument or auto-sampler stability) was also evaluated by comparing freshly prepared plasma and urine QC samples to samples placed on the auto-sampler for 2, 4, and 6 h respectively. One set of the plasma and urine QC samples was extracted with methanol containing IS, and another set with pure methanol without IS.

[7] = Pharmacokinetic study of the GMC1 co-solvent formulation, IV bolus; format: in vivo, male Sprague Dawley rats; conditions: rat, single 2 mg/kg IV bolus, three compartment model; for half-life / Vd: iv, 2 mg/kg
Description: Pharmacokinetic Studies of the GMC1 Co-Solvent Formulation. Pharmacokinetic study, which elucidates the fate of GMC1 in living systems, was performed. The pharmacokinetic study also verifies the applicability of the LC/MS/MS assay method and the formulation. A rat model was employed and male Sprague Dawley rats were selected as an animal model based on the similarity to humans in metabolism. Four male Sprague Dawley rats (body weight: 300-350 g) were cannulated through the jugular vein under anesthesia (using a cocktail of ketamine:acepromazine:xylazine at a ratio of 50:3.3:3.3 mg/kg). On the following day, the optimal co-solvent formulation of GMC1 (consisting of Labrasol® 50:50 PEG 300, and GMC1 10 mg/mL) was diluted ten times in normal saline to 1 mg/mL. Each rat was administered a 2 mg/kg IV bolus dose of GMC1. Heparinized blood samples were withdrawn from each rat at 5, 10, 15, 30, 60, 120, 240, 480, 720, 1440, 2880, 3240 min after injection. The blood samples were centrifuged at 14,000 rpm for 6 min and the supernatant plasma obtained and stored at −80° C. until analysis. Urine samples were also collected at 0, 60, 240, 480, 720, and 1440 min. The plasma and urine samples were analyzed (within 7 days) using the LC/MS/MS method described herein to obtain the concentration of GMC1.
The pharmacokinetic parameters for each rat were determined with Phoenix WinNonlin 6.3 software (Pharsight Corporation, Mountain View, Calif., USA) using a three compartment, which best described the fit for the IV bolus administration of GMC1, based on the observed and predicted fits of the plasma concentration versus time plot, the reduction in the sums of squares, and the Akaike's information criterion (AIC) for comparing compartmental models (Yamaoka et al., Journal of Pharmacokinetics and Biopharmaceutics 1978, 6(2):165-75). The three-compartment model is described by the equation: Ct=A·e^−αt+B·e^−βt+C·e^−γt where A, B and C are the coefficients, α, β, and γ are alpha, beta and gamma phase rate constants respectively, and Ct is the plasma concentration of GMC1 at time, t.
The weighting scheme of concentration^−2 (Y^−2) was used to determine the model that best fits the individual profiles.

[8] = Solubility of GMC1 in selected solvents by the shaker method; format: physicochemical; conditions: thermodynamic from solid, read-out: Mean Solubility ± SD
Description: Solubility information in various solvents is important in developing a suitable intravenous formulation of GMC1 for preclinical and clinical studies. The solubility of GMC1 in water, ethanol, polyethylene glycol 300 and 400, propylene glycol monocapryrate type I (Capyrol 90®), dimethyl sulfoxide (DMSO), dimethyl acetamide (DMA), Tween 80®, Labrasol®, Labrafac®, soybean oil, and oleic acid were determined by the shaker method. Briefly, excess amount of GMC1 was added to each of the selected solvents in a scintillation vial and shook using a reciprocating shaker at room temperature for 72 h. The samples were centrifuged at 14,000 rpm for 10 min and subsequently filtered through a 0.22 μm filtration unit, the resulting filtrate analyzed by LC/MS/MS to determine the GMC1 dissolved in the solvents. The study was conducted in triplicate.

[9] = Short-term (bench-top) stability of GMC1 plasma and urine samples; format: physicochemical, rat; conditions: read-out: Mean Recovery ± SD, short-term stability; for recovery at 2 h: bench-top 2 h; for recovery at 4 h: bench-top 4 h; for recovery at 6 h: bench-top 6 h
Description: The short-term (bench-top) stability of GMC1 plasma and urine samples was evaluated by analyzing three sets each of GMC1 plasma and urine samples freshly prepared and placed on the bench-top for 2, 4, and 6 h, respectively. All the samples were compared with freshly prepared samples of the same concentration.

[10] = processed plasma sample (methanol extract), plasma extracted with methanol containing IS, read-out: Mean Recovery ± SD, auto-sampler stability, With IS
[11] = processed plasma sample (methanol extract), plasma extracted with pure methanol, read-out: Mean Recovery ± SD, auto-sampler stability, No IS
[12] = processed urine sample (methanol extract), urine extracted with methanol containing IS, read-out: Mean Recovery ± SD, auto-sampler stability, With IS
[13] = processed urine sample (methanol extract), urine extracted with pure methanol, read-out: Mean Recovery ± SD, auto-sampler stability, No IS

## COc1ccc(/C=N/NC(=O)CSc2nc3ccccc3[nH]2)cc1 [GMC1]
[1]; rat plasma, three cycles −80° C./room temperature
  recovery at 10 ng/mL: 106 ± 5.9%
[1]; rat plasma, three cycles
  recovery at 200 ng/mL: 98.5 ± 3.7%
  recovery at 400 ng/mL: 94.1 ± 2.9%
[1]; rat urine, three cycles
  recovery at 10 ng/mL: 113 ± 8.9%
  recovery at 200 ng/mL: 101 ± 3.9%
  recovery at 400 ng/mL: 86.6 ± 7.5%
[2]
  concentration range inhibiting receptor activity: low to mid micro-molar
[3]
  concentration range inhibiting receptor activity: low to mid micro-molar
[4]
  concentration range inhibiting cell proliferation: low micromolar
[5]
  logP: 3.48 ± 0.03
[6]; [10]
  recovery at 2 h: 89.9 ± 4.7%
  recovery at 4 h: 97.5 ± 1.5%
  recovery at 6 h: 96.2 ± 5.6%
[6]; [11]
  recovery at 2 h: 94.7 ± 7.9%
  recovery at 4 h: 99.7 ± 4.5%
  recovery at 6 h: 98.4 ± 6.2%
[6]; [12]
  recovery at 2 h: 96.4 ± 2.8%
  recovery at 4 h: 98.5 ± 1.1%
  recovery at 6 h: 97.1 ± 4.8%
[6]; [13]
  recovery at 2 h: 96.1 ± 2.4%
  recovery at 4 h: 89.7 ± 8.8%
  recovery at 6 h: 95.2 ± 2.2%
[7]; male, Sprague Dawley, plasma
  AUC(0-inf): 3900 ng·h/mL
  Cmax: 7640 ± 1980 ng/mL
[7]; male, Sprague Dawley, plasma, read-out: Cl (total body clearance)
  clearance: 8.9 ± 1.66 mL/min/kg
[7]; male, Sprague Dawley, plasma, read-out: T1/2α (distribution half-life of α-phase)
  half-life: 0.11 ± 0.036 h
[7]; male, Sprague Dawley, plasma, read-out: T1/2β (elimination half-life of β-phase)
  half-life: 1.23 ± 0.42 h
[7]; male, Sprague Dawley, plasma, read-out: T1/2γ (elimination half-life of γ-phase)
  half-life: 19.7 ± 5.09 h
[7]; male, Sprague Dawley, plasma, read-out: V1 (volume of distribution of central compartment)
  Vd: 0.278 ± 0.0642 L/kg
[7]; male, Sprague Dawley, plasma, read-out: Vss (volume of distribution at steady state)
  Vd: 7.73 ± 1.22 L/kg
[7]
  A (coefficient of α-phase): 6528.9 ± 1996.01 ng/mL
  B (coefficient of β-phase): 1038.5 ± 546.09 ng/mL
  C (coefficient of γ-phase): 75.1 ± 20.24 ng/mL
  V2 (volume of distribution of first peripheral compartment): 0.5595 ± 0.20603 L/kg
  V3 (volume of distribution of second peripheral compartment): 6.8665 ± 1.11754 L/kg
[8]; DMSO, organic solvent or mixture, DMSO, room temperature
  solubility at 72 h: ≥ 100 mg/mL
[8]; Labrafac, oil or lipid, Labrafac, room temperature
  solubility at 72 h: 1.2 ± 0.01 mg/mL (≈ 3.53 mM)
[8]; Labrasol, aqueous with cosolvent or surfactant or cyclodextrin, Labrasol, room temperature
  solubility at 72 h: 36.4 ± 2.9 mg/mL (≈ 107 mM)
[8]; PEG 300, organic solvent or mixture, PEG 300, room temperature
  solubility at 72 h: 36.6 ± 1.12 mg/mL (≈ 108 mM)
[8]; PEG 400, organic solvent or mixture, PEG 400, room temperature
  solubility at 72 h: 35.7 ± 1.41 mg/mL (≈ 105 mM)
[8]; Tween 80, aqueous with cosolvent or surfactant or cyclodextrin, Tween 80, room temperature
  solubility at 72 h: 20.3 ± 5.39 mg/mL (≈ 59.6 mM)
[8]; dimethyl acetamide, organic solvent or mixture, Dimethyl acetamide, room temperature
  solubility at 72 h: ≥ 100 mg/mL
[8]; ethanol, organic solvent or mixture, Ethanol, room temperature
  solubility at 72 h: 6.3 ± 0.29 mg/mL (≈ 18.5 mM)
[8]; oleic acid, oil or lipid, Oleic Acid, room temperature
  solubility at 72 h: 2.2 ± 0.02 mg/mL (≈ 6.46 mM)
[8]; soybean oil, oil or lipid, Soy bean oil, room temperature
  solubility at 72 h: 1.1 ± 0.02 mg/mL (≈ 3.23 mM)
[9]; rat plasma
  recovery at 2 h: 97.4 ± 8.89%
  recovery at 4 h: 88.9 ± 2.63%
  recovery at 6 h: 80.1 ± 5.71%
[9]; rat urine
  recovery at 2 h: 94.2 ± 4.66%
  recovery at 4 h: 93.9 ± 0.76%
  recovery at 6 h: 93.7 ± 1.23%
